The test system of data set [1] is mite eggs (Tetramuchus urticae). In words: Mite control test, mite eggs. Conditions: 40-ppm leaf dip, egg mortality (non-hatching eggs) 7 days after treatment. The format is in vivo. Here is the method:
(§1) Compounds of the invention were tested for the control mites and mite eggs by the following procedure. Pinto bean leaves were invested with two spotted-mites (Tetramuchus urticae). The mites were then allowed to lay eggs on the leaves. After 48 hours, the leaves were dipped into a water/acetone solution containing a small amount of a non-ionic surfactant and 40-ppm of the test compound. The treated leaves were then maintained at 85° F. One day after treatment, the mortality of adult mites was determined, and 7 days after treatment, the egg mortality (non-hatching eggs) was determined.

Data set [2] relates to Crabgrass (Digitaria sanguinalis). The data set is described as follows: Post-emergent herbicidal test. Conditions: post-emergence, 504 h, 33 mcg/cm^2, 3 weeks, scale 0 (no phytotoxicity) to 100 (complete kill), read-out: Herbicidal Effectiveness (C). It is filed as in vivo. The method, then:
(§2) Post-emergent herbicidal tests with representative compounds of this invention were made using the following method.
(§3) An acetone solution of the test compound was prepared by mixing 750 mg of the compound, 220 mg of a nonionic surfactant and 25 ml of acetone. This solution was added to approximately 125 ml of water containing 156 mg of surfactant.
(§4) This test solution was uniformly sprayed on 2 similar pots of 24-day-old plants (approximately 15 to 25 plants per pot) at a dose of 33 mcg/cm^2. After the plants had dried, they were placed in a greenhouse and then watered intermittently at their bases, as needed. The plants were observed periodically for phytotoxic effects and physiological and morphological responses to the treatment. After 3 weeks, the herbicidal effectiveness of the compound was rated based on these observations. A 0-to-100 scale was used, 0 representing no phytotoxicity and 100 representing complete kill.

The test system of data set [3] is Pigweed (Amaranthus retroflexus). In words: Post-emergent herbicidal test. To be noted: post-emergence, 504 h, 33 mcg/cm^2, 3 weeks, scale 0 (no phytotoxicity) to 100 (complete kill), read-out: Herbicidal Effectiveness. The format is in vivo. Here is the method: as §2, §3, §4
The test system of data set [4] is Mustard (Brassica arvensis). In words: Post-emergent herbicidal test. The format is in vivo. To be noted: post-emergence, 504 h, 33 mcg/cm^2, 3 weeks, scale 0 (no phytotoxicity) to 100 (complete kill), read-out: Herbicidal Effectiveness (L). Here is the method:
as §2, §3, §4

Data set [5] deals with Lambsquarter (Chenopodium album). In words: Post-emergent herbicidal test. It is filed as in vivo. To be noted: post-emergence, 504 h, 33 mcg/cm^2, 3 weeks, scale 0 (no phytotoxicity) to 100 (complete kill), read-out: Herbicidal Effectiveness (P). The method, then:
as §2, §3, §4

Data set [6] relates to Watergrass (Echinochloa Crusgalli). In words: Post-emergent herbicidal test. It is filed as in vivo. Conditions: Echinochloa crus-galli, post-emergence, 504 h, 33 mcg/cm^2, 3 weeks, scale 0 (no phytotoxicity) to 100 (complete kill), read-out: Herbicidal Effectiveness (W). The method, then:
as §2, §3, §4

The next data set deals with Wild Oats (Avena fatua). In words: Post-emergent herbicidal test. The format is in vivo. Conditions: post-emergence, 504 h, 33 mcg/cm^2, 3 weeks, scale 0 (no phytotoxicity) to 100 (complete kill), read-out: Herbicidal Effectiveness (O). The method, then: as §2, §3, §4
Another data set relates to Rhizoctonia solani. In words: Mycelia Inhibition. It is filed as cell-based. Conditions: 25° C., 24 hours. Here is the method:
(§5) The compounds of the present invention were evaluated for fungicidal effectiveness by means of a mycelial inhibition test. This test is designed to measure the fungitoxic acitvity of fungicidal chemicals in terms of their degree of inhibition of mycelium growth. Each compound to be tested was dissolved in acetone to 500 ppm concentration. Paper strips were innoculated with the particular mycelium growth by covering the paper with a potato dextrose broth culture of mycelial suspension. The innoculated papers were then placed on potato dextrose agar plates and sprayed by means of a micro sprayer with the fungicidal solution. The treated paper strips were incubated at 25° C. and data is taken after 24 hours. Fungicidal activities are measured by a zone of inhibited mycelial growth from the center of the paper strip. The effectiveness of the compounds tested for fungicidal activity is reported in Table VI in terms of the microgram/cm^2 for 99% control of the fungus.

Another data set deals with Aspergillus niger. In words: Mycelia Inhibition. The format is cell-based. To be noted: 25° C., 24 hours. The method, then: as §5
The next data set relates to Fusarium moniloforma. The data set is described as follows: Mycelia Inhibition. Conditions: 25° C., 24 hours. It is filed as cell-based. The method, then: as §5
In another data set the test system is Botrytis cinerea. The data set is described as follows: Mycelia Inhibition. Conditions: 25° C., 24 hours. It is filed as cell-based. Here is the method: as §5
Data set [7] has as its system two spotted-mites (Tetramuchus urticae). In words: Mite control test, adult mites. The format is in vivo. Conditions: 40-ppm leaf dip, adult mortality one day after treatment; 1440 min. Here is the method:
as §1

A further data set relates to Phytophthora infestans. In words: whole plant or invertebrate. To be noted: in Solanum lycopersicum, 168 h, read-out: Tomato Late Blight, % Control. It is filed as in vivo.

Structures are written as SMILES.

From patent publication US4119722A, “Method for control of fungi using 4-halo-5-aryl-1,2,3,-dithiazoles” (Chevron Research Company, priority 1977, dated 1978) come the findings set out here.

On to `Clc1nssc1=Nc1cccc(Br)c1` [Compound 12], for which the “Mite Eggs Control, %” value in [1] is given as 78%. In addition, the pest or weed control at 33 µg/cm2 in data set [2] is 30%; in data set [3], 85%; in [4] it was 100%; in data set [5], 55%; in [6], 30%; in the data set with Wild Oats (Avena fatua) it was 30%. In the data set with Rhizoctonia solani, the “Mycelia Inhibition, for 99% control (R)” value was 1.4 micrograms/cm^2. Moreover, the “Mycelia Inhibition, for 99% control (A)” value in the data set with Aspergillus niger is listed as greater than 1.7 micrograms/cm^2. In addition, in the data set with Fusarium moniloforma, the “Mycelia Inhibition, for 99% control (F)” value is greater than 1.7 micrograms/cm^2. In the data set with Botrytis cinerea, the “Mycelia Inhibition, for 99% control (B)” value is on record as greater than 1.7 micrograms/cm^2.
Consider `Cc1cc(C)c(N=c2ssnc2Cl)c(C)c1` [Compound 11], for which the “Mycelia Inhibition, for 99% control (R)” value with Rhizoctonia solani was determined as 0.98 micrograms/cm^2. The “Mycelia Inhibition, for 99% control (A)” value in the data set with Aspergillus niger is recorded as greater than 1.7 micrograms/cm^2. Further, the “Mycelia Inhibition, for 99% control (F)” value in the data set with Fusarium moniloforma is on record as greater than 1.7 micrograms/cm^2. Besides, the “Mycelia Inhibition, for 99% control (B)” value with Botrytis cinerea is on record as greater than 1.7 micrograms/cm^2.
As for `Clc1ccc(N=c2ssnc2Cl)cc1Cl` [Compound 5, 4-chloro-5-(3,4-dichlorophenylimino)-1,2,3-dithiazole], the “Mite Eggs Control, %” value in data set [1] is recorded as 100%. Moreover, the pest or weed control at 33 µg/cm2 in data set [2] was determined as 30%; in [3], 100%; in data set [4], 100%; in data set [5], 100%; in [6] it was 55%; with Wild Oats (Avena fatua) it was 35%. The “Mite Control, %” value in [7] is recorded as 99%. Besides, the “Mycelia Inhibition, for 99% control (R)” value with Rhizoctonia solani is greater than 1.7 micrograms/cm^2. In addition, the “Mycelia Inhibition, for 99% control (A)” value with Aspergillus niger turned out to be 1.1 micrograms/cm^2. For the same molecule, in the data set with Fusarium moniloforma, the “Mycelia Inhibition, for 99% control (F)” value is greater than 1.7 micrograms/cm^2.
Take `Clc1cccc(N=c2ssnc2Cl)c1` [Compound 15]: the pest or weed control at 33 µg/cm2 came out at 10% in data set [2]; 85% in data set [3]; 98% in [4]; 80% in [5]; 45% in [6]; 30% in the data set on Wild Oats (Avena fatua). The “Mycelia Inhibition, for 99% control (R)” value with Rhizoctonia solani is 0.98 micrograms/cm^2. The “Mycelia Inhibition, for 99% control (A)” value in the data set on Aspergillus niger is recorded as greater than 1.7 micrograms/cm^2. Further, the “Mycelia Inhibition, for 99% control (F)” value in the data set on Fusarium moniloforma was greater than 1.7 micrograms/cm^2. For the same molecule, the “Mycelia Inhibition, for 99% control (B)” value with Botrytis cinerea is reported as greater than 1.7 micrograms/cm^2. In the data set with Phytophthora infestans, the pest or weed control at 250 µg/mL amounted to 68%.
`Cc1ccccc1N=c1ssnc1Cl` [Compound 7]: the pest or weed control at 33 µg/cm2 was found to be 0% in data set [2]; 70% in data set [3]; 60% in data set [4]; 70% in data set [5]; 0% in [6]; 0% in the data set on Wild Oats (Avena fatua). For the same molecule, the “Mycelia Inhibition, for 99% control (R)” value in the data set with Rhizoctonia solani is given as greater than 1.7 micrograms/cm^2. Moreover, in the data set with Aspergillus niger, the “Mycelia Inhibition, for 99% control (A)” value is recorded as 0.98 micrograms/cm^2. Moreover, in the data set on Fusarium moniloforma, the “Mycelia Inhibition, for 99% control (F)” value is given as greater than 1.7 micrograms/cm^2. In addition, the “Mycelia Inhibition, for 99% control (B)” value in the data set on Botrytis cinerea is listed as greater than 1.7 micrograms/cm^2.
Consider `Oc1c(Cl)cc(N=c2ssnc2Cl)cc1Cl` [Compound 26], for which the “Mycelia Inhibition, for 99% control (R)” value in the data set with Rhizoctonia solani amounted to 1.3 micrograms/cm^2. Further, the “Mycelia Inhibition, for 99% control (A)” value with Aspergillus niger is greater than 1.7 micrograms/cm^2. For the same molecule, the “Mycelia Inhibition, for 99% control (F)” value with Fusarium moniloforma was greater than 1.7 micrograms/cm^2. In addition, the “Mycelia Inhibition, for 99% control (B)” value with Botrytis cinerea was greater than 1.7 micrograms/cm^2.
Consider `Clc1nssc1=Nc1ccccc1` [Compound 1, 4-chloro-5-phenylimino-1,2,3-dithiazole], for which the pest or weed control at 33 µg/cm2 in data set [2] came to 20%; in data set [3] it was 85%; in data set [4], 80%; in data set [5], 70%; in data set [6] it was 10%; in the data set with Wild Oats (Avena fatua), 0%. The “Mycelia Inhibition, for 99% control (R)” value in the data set on Rhizoctonia solani is recorded as greater than 1.7 micrograms/cm^2. In addition, the “Mycelia Inhibition, for 99% control (A)” value with Aspergillus niger is greater than 1.7 micrograms/cm^2. Also, in the data set with Fusarium moniloforma, the “Mycelia Inhibition, for 99% control (F)” value is on record as greater than 1.7 micrograms/cm^2. In addition, the “Mycelia Inhibition, for 99% control (B)” value in the data set on Botrytis cinerea worked out at 0.33 micrograms/cm^2.
For `Cc1ccc(N=c2ssnc2Cl)cc1` [Compound 25], the pest or weed control at 33 µg/cm2 in data set [2] worked out at 35%; in [3], 90%; in data set [4], 100%; in data set [5], 45%; in data set [6] it was 55%; in the data set with Wild Oats (Avena fatua), 30%. Moreover, the “Mycelia Inhibition, for 99% control (R)” value with Rhizoctonia solani turned out to be 0.92 micrograms/cm^2. Besides, in the data set with Aspergillus niger, the “Mycelia Inhibition, for 99% control (A)” value is 1.5 micrograms/cm^2. Further, the “Mycelia Inhibition, for 99% control (F)” value with Fusarium moniloforma was greater than 1.7 micrograms/cm^2. For the same molecule, in the data set on Botrytis cinerea, the “Mycelia Inhibition, for 99% control (B)” value came to 0.76 micrograms/cm^2.
For the molecule `Clc1ccc(N=c2ssnc2Cl)cc1` [Compound 2], the pest or weed control at 33 µg/cm2 in [2] was found to be 20%; in data set [3], 100%; in data set [4] it was 95%; in data set [5], 95%; in data set [6], 85%; in the data set on Wild Oats (Avena fatua) it was 15%. Further, the “Mycelia Inhibition, for 99% control (R)” value in the data set with Rhizoctonia solani is given as 0.33 micrograms/cm^2. Moreover, the “Mycelia Inhibition, for 99% control (A)” value in the data set on Aspergillus niger stood at 0.85 micrograms/cm^2. Moreover, the “Mycelia Inhibition, for 99% control (F)” value with Fusarium moniloforma is 1.5 micrograms/cm^2.
Take `Clc1nssc1=Nc1ccc2ccccc2c1` [Compound 16]: the pest or weed control at 33 µg/cm2 turned out to be 20% in data set [2]; 85% in data set [3]; 100% in [4]; 70% in [5]; 90% in [6]; 0% in the data set on Wild Oats (Avena fatua). Also, in the data set with Phytophthora infestans, the pest or weed control at 250 µg/mL was found to be 73%.
As for `Cc1cccc(C)c1N=c1ssnc1Cl` [Compound 10], the pest or weed control at 33 µg/cm2 was found to be 0% in data set [2]; 60% in data set [3]; 75% in data set [4]; 30% in data set [5]; 0% in data set [6]; 0% in the data set with Wild Oats (Avena fatua).
Turning to `Fc1ccc(N=c2ssnc2Cl)cc1` [Compound 24], the pest or weed control at 33 µg/cm2 in data set [2] was found to be 60%; in [3] it was 70%; in data set [4], 100%; in data set [5] it was 70%; in [6], 60%; with Wild Oats (Avena fatua), 40%.
With `Clc1ccccc1N=c1ssnc1Cl` [Compound 14], the “Mite Eggs Control, %” value in data set [1] is 0%. In addition, the pest or weed control at 33 µg/cm2 stood at 30% in data set [2]; 93% in data set [3]; 100% in [4]; 100% in data set [5]; 40% in [6]; 0% in the data set on Wild Oats (Avena fatua). The “Mite Control, %” value in [7] amounted to 70%.
